Laboratory results: patent US12702307B2, “Non-invasive stress imaging methods of diagnosing peripheral arterial disease via dynamic pet” (Jubilant DraxImage inc., priority 2021, dated 2026)

How the values were obtained:
[1] = tested on: occluded tissue / low limb; assay: Dynamic Rb-82 PET, tracer flux K1 in lower extremity, human study; type: in vivo; settings: for average K1 value: diabetic subject, 3D region of interest on the low limb, parametric imaging
Experimental: CT scan was performed on the subject for standard attenuation correction, multi-energy low dose contrast CT imaging was performed to define lower extremity vasculature and attenuation correction was performed using virtual non-contrast images; 518±37 MBq Rb-82 is administered to the subject using automated generation and infusion system agent; single bed PET acquisition of the heart for about 2-7 minutes is performed; single bed centered PET acquisition at abdominal aorta of the subject for about 1-3 minutes is performed; continuous bed motion PET scan of the subject between abdominal aorta and legs is performed; input function was calculated from abdominal artery; Tracer flux (K1) into the tissue or region of interest is calculated as volume per unit time per unit volume of tissue. […] FIG. 5 represents the image acquisition protocol during human study. FIG. 7 represents the muscle volumes in human studies.

calf muscles = assay: Rb PET/CT calf muscle perfusion at rest and reactive hyperemia in controls and PAD patients; type: in vivo, human
Experimental: Methods: Rb PET/CT imaging (Vision600, Siemens) was performed in healthy controls (n=6) and PAD patients (n=6). Rb (20-30 mCi) was delivered using a constant activity infusion over […], with PET images acquired by shuttling scanner from either heart (Protocol 1) or abdomen (Protocol 2) to feet using 8-11 passes over 7 minutes. Abdominal protocol was repeated 30 seconds after RH induced by 5 minutes bilateral thigh cuff occlusion. Mean Rb standardized uptake values (SUV), excluding the input function, were determined for calf muscles segmented in both legs using hybrid CT images including: gastrocnemius (GC), soleus (SOL), tibialis anterior (TA), extensor digitorum longus (EDL), and peroneus (PER) (FIG. 10A).

[2] = tested on: calf muscles, hindlimb ischemia (HLI); assay: Rb-82 PET/CT of calf muscles in rabbit hindlimb ischemia at rest and cuff-induced hyperemia; type: in vivo, rabbits; settings: for SMP SUV: cuff-induced hyperemia (CIH); for Mean Rb-82 SUV: rest, 1.5 mCi
Experimental: Methods: Hindlimb ischemia (HLI) was created in rabbits (n=8) by right femoral ligations and Rb-82 PET/CT imaging performed on digital PET scanner (Vision600, Siemens) at either 2 or 4 weeks post-ligation. Rabbits were injected with Rb-82 (1.5 mCi) with constant activity infusion over 30 seconds at rest and 30 seconds following hyperemia induced by 3 minutes cuff occlusion of thighs bilaterally. PET images were acquired with shuttling scanner from heart to feet using 8 passes over 7 minutes. Summed images were created excluding the first 90 seconds post injection. Calf muscles were segmented based on CT images. Mean Rb-82 standardized uptake values (SUVs) were calculated for calf muscles—gastrocnemius (GC), plantaris (PLA), soleus (SOL), tibialis anterior (TA), extensor digitorum longus (EDL), peroneus (PER)—for both ischemic (I) and non-ischemic (NI) limbs. CT angiography was performed, and tissues analyzed for fiber type and capillary density.

[3] = tested on: occluded tissue (lower extremity); assay: Dynamic Rb-82 PET, tracer flux K1 in lower extremity, animal study; type: in vivo, porcine pigs; settings: occluded tissue in comparison to non-occluded tissue; 518±37 MBq Rb-82
Experimental: CT scan was performed on the subject for standard attenuation correction, and multi-energy low dose contrast CT imaging was performed to define the lower extremity vasculature and attenuation correction was performed using virtual non-contrast images; 518±37 MBq Rb-82 was administered to the subject using automated generation and infusion system; single bed PET acquisition of the heart for about 1-10 minutes, was performed; single bed PET acquisition of the leg for about 1-10 minutes was performed; single bed centered PET acquisition at abdominal aorta of the subject for about 1-3 minutes was performed; continuous bed motion PET scan of the subject between abdominal aorta and legs was performed; tracer flux (K1) into the tissue or region of interest is calculated as volume per unit time per unit volume of tissue. […] It was validated by injecting microspheres over 30 seconds during the PET imaging at either rest or stress conditions for each animal and blood flow was measured in both gastrocnemius and soleus muscles. FIG. 4 represents the sample animal K1 parametric image with AA as the input function. FIG. 6 represents the muscle volumes in animal studies.

Row | average K1 value [1] | Mean Rb SUV (calf muscles; reactive hyperemia (RH), PAD patients, gastrocnemius (GC)) | Mean Rb SUV (calf muscles; reactive hyperemia (RH), PAD patients, soleus (SOL)) | Mean Rb SUV (calf muscles; reactive hyperemia (RH), controls, gastrocnemius (GC)) | Mean Rb SUV (calf muscles; reactive hyperemia (RH), controls, soleus (SOL)) | Mean Rb SUV (calf muscles; rest, PAD subjects, gastrocnemius (GC)) | Mean Rb SUV (calf muscles; rest, PAD subjects, soleus (SOL)) | Mean Rb SUV (calf muscles; rest, controls, gastrocnemius (GC)) | Mean Rb SUV (calf muscles; rest, controls, soleus (SOL)) | SMP SUV ([2]; ischemic (I) limb) | SMP SUV ([2]; non-ischemic (NI) limb) | Mean Rb-82 SUV ([2]; ischemic (I) limb across calf muscles) | Mean Rb-82 SUV ([2]; non-ischemic (NI) limb across calf muscles) | Average K1 (tracer flux) [3] | Average K1 (tracer flux) ([1]; occluded tissue in comparison to non-occluded tissue, 518±37 MBq Rb-82) | Compound
1 | 0.039 | – | – | – | – | – | – | – | – | – | – | – | – | – | – | [15OH2] [^15O-water]
2 | 0.032 | 0.96±0.58 | 1.08±0.76 | 0.38±0.18 | 0.34±0.14 | 0.50±0.11 | 0.66±0.20 | 0.44±0.11 | 0.52±0.12 | 1.02±0.32 | 1.14±0.34 | 0.55±0.18 | 0.51±0.16 | less than 0.05 ml/min/cm^3 | less than 0.05 ml/min/cm^3 | Rb-82 chloride
